Results published in patent publication US9877998B2, “Uses of hypoxia-inducible factor inhibitors” (OncoImmune, Inc., priority 2009, dated 2018).

Tests used:
[1] = test system: lymphoma CSC (c-Kit+Sca-1+ TGB lymphoma cells); assay: Colony formation (CFU) assay of TGB lymphoma cells in 1% methylcellulose medium; format: cell-based, mouse; conditions: for effect on lymphoma CFU (colony number): cultured lymphoma cells treated 24 hours with pharmacologically effective doses (echinomycin: low doses), drugs washed away
Procedure: FIG. 2. HIF addiction of CSC. a. Selective ablation of lymphoma CFU by echinomycin. The cultured lymphoma cells were treated with given doses of pharmacologically effective drugs in medium for 24 hours. After washing away the drugs, the cells were cultured in 1% methylcellulose-containing medium, and the colony number was counted after 6 to 7 days. Data shown are means and SD of triplicates and have been confirmed by 3 independent experiments. b. A reporter system for HIF activity in the TGB lymphoma. Diagram of lentiviral construct for HIF activity is shown on the top. Pause, a sequence fragment to eliminate the effect of lentiviral promoter; HRE, Hypoxia response element (SEQ ID NO: 20); TATA, TATA sequence (TATATAAT) (top). Lower left, validation of the reporter. HEK293 cells were transiently transfected with cDNA encoding mutant HIF1α (P402A/P577A) or vector control in conjunction with either HRE-driven EGFP reporter, HRE mutant reporter (SEQ ID NO: 21). The cells were analyzed by flow cytometry to detect EGFP expression 36 hours after transduction. […] IC50 of echinomycin in the inhibition of HIF1α activity in lymphoma CSC. The lymphoma cells transfected with the HRE reporter system were cultured in the presence of different concentration of echinomycin for 12 hours, the % of c-Kit^+GFP^+ cells was normalized against the untreated group (1.13%, which was defined as 100%). […] Selectivity of HIF inhibitor for CFU of lymphoma CSC over the CFU from hematopoietic progenitor cells. c-Kit^+Sca-1^+ cells from either TGB or normal bone marrow were treated with given concentration of echinomycin overnight prior to plating in the medium containing 1% methylcellulose for CFU assay. The data shown were % of untreated controls, and were means+/−S.D. of triplicates. e. Therapeutic effect of a low dose of echinomycin. Cultured lymphoma cells (1×10^6/mouse) were injected i.p. into immune competent B10.BR mice. Fourteen days later, 10 μg/Kg/Injection of echimomycin was injected at a two-day interval for a total of 5 times. Control mice received vehicle only. The mice were observed daily for survival.
FIG. 6. HIF works in concert with Notch pathway to maintain CSC. a. Inhibition of colony-forming activity of CSC. The cultured lymphoma cells were treated with given doses of L685, 458 for 24 hours. After that, the cells were cultured in 1% methylcellulose-containing medium, and the colony number was counted after 6 to 7 days. Data shown are means+/−SD of triplicate samples and are representative of those of at least 3 independent experiments. b. Enhanced Notch activity in CSC, as indicated by the levels of Hes1 transcripts. The lymphoma cells from spleen with tumor in TGB transgenic mouse were sorted into c-kit^+Sca-1^+ or c-kit^−Sca-1^− fractions. The expressions of Hes1αnd mRNA in these two fractions were measured by real time PCR. c. Inhibition of Notch activity by 3 distinct HIF inhibitors. Cultured TGB lymphoma cells were stained with APC conjugated anti-c-Kit-antibody and enriched twice using anti-APC coated MACS beads according to manufacturer's protocol (Militenyi Biotec). The c-kit positive cells-enriched samples (60.4% c-Kit^+ cells) were treated with inhibitors of HIF for 16 hours. The mRNA from the treated cells were extracted for quantitation by real-time PCR. Data shown are means+/−SD of triplicates and represent those from at least 3 independent experiments. 2ME2, 2-methoxyestradiol; GA, geldamycin. d-g. […] A truncated Notch gene with potent dominant negative activity in inhibiting the expression of Notch target gene Hes. […] The right panel show dominant inhibition of Hes expression. After three consecutive transductions by either vector control or the dRdA1-4dOP mutant, the RNA were isolated and the transcripts of Hes measured by quantitative PCR. Data shown are means of triplicates and have been reproduced by two independent experiments. e. Notch I-C deltaRAM abrogates the c-Kit^+Sca-1^+ subset. […]

[2] = test system: TGB lymphoma; assay: In vivo tumorigenicity / therapy of transplanted TGB lymphoma in B10.BR mice (survival); conditions: 9×10^5 lymphoma cells i.p., 5 injections at two day interval from day 8; less efficacy than echinomycin (FIG. 12b)
Procedure: FIG. 2. HIF addiction of CSC. a. Selective ablation of lymphoma CFU by echinomycin. The cultured lymphoma cells were treated with given doses of pharmacologically effective drugs in medium for 24 hours. After washing away the drugs, the cells were cultured in 1% methylcellulose-containing medium, and the colony number was counted after 6 to 7 days. Data shown are means and SD of triplicates and have been confirmed by 3 independent experiments. b. A reporter system for HIF activity in the TGB lymphoma. Diagram of lentiviral construct for HIF activity is shown on the top. Pause, a sequence fragment to eliminate the effect of lentiviral promoter; HRE, Hypoxia response element (SEQ ID NO: 20); TATA, TATA sequence (TATATAAT) (top). Lower left, validation of the reporter. HEK293 cells were transiently transfected with cDNA encoding mutant HIF1α (P402A/P577A) or vector control in conjunction with either HRE-driven EGFP reporter, HRE mutant reporter (SEQ ID NO: 21). The cells were analyzed by flow cytometry to detect EGFP expression 36 hours after transduction. […] IC50 of echinomycin in the inhibition of HIF1α activity in lymphoma CSC. […]
Given numbers of total tumor cells or sorted subsets were injected into either immune competent B10.BR mice or RAG-2^−/−BALB/c mice. […] The therapeutic effects were analyzed by Kaplan Meier survival analysis.

[3] = test system: lymphoma CSC (c-Kit+Sca-1+ TGB lymphoma cells); assay: Colony formation (CFU) assay of TGB lymphoma cells in 1% methylcellulose medium; format: cell-based, mouse; conditions: first and second rounds of sorted cells, 1000/well, drug 24 hours, colonies counted after 5 days
[4] = colonies counted after 6 to 7 days

SMILES | effect on lymphoma CFU (colony number) [1, 4] | also measured
CO[C@H]1C[C@@H]2CC[C@@H](C)[C@@](O)(O2)C(=O)C(=O)N2CCCC[C@H]2C(=O)O[C@H]([C@H](C)C[C@@H]2CC[C@@H](O)[C@H](OC)C2)CC(=O)[C@H](C)/C=C(\C)[C@@H](O)[C@@H](OC)C(=O)[C@H](C)C[C@H](C)/C=C/C=C/C=C/1C [Rapamycin] | no effect | 
O=S(=O)(NCCNC/C=C/c1ccc(Br)cc1)c1cccc2cnccc12 [H89] | no effect | 
C[S+]([O-])c1ccc(-c2nc(-c3ccncc3)c(-c3ccc(F)cc3)[nH]2)cc1 (stereo not shown) [SB203580] | no effect | 
COc1ccc2c(c1)c(C1=C(c3c[nH]c4ccccc34)C(=O)NC1=O)cn2CCCN(C)C [Gö6983] | no effect | 
COc1cccc(-c2cc(=O)c3ccccc3o2)c1N [PD98059] | no effect | 
O=c1cc(N2CCOCC2)oc2c(-c3ccccc3)cccc12 [Ly294002] | no effect | 
CC(C)C[C@H](NC(=O)[C@H](Cc1ccccc1)C[C@@H](O)[C@H](Cc1ccccc1)NC(=O)OC(C)(C)C)C(=O)N[C@@H](Cc1ccccc1)C(N)=O [L-685, 458] |  | colony forming activity of lymphoma CSC ([1]; given doses for 24 hours, colonies counted after 6 to 7 days): potently blocked
Cn1cc(C2=C(c3ccc(Cl)cc3Cl)C(=O)NC2=O)c2ccccc21 [SB216763] | no effect | 
COc1cc2c(cc1O)CC[C@@H]1[C@@H]2CC[C@]2(C)[C@@H](O)CC[C@@H]12 [2-methoxyestradiol] |  | CFU of CSC ([1]; less efficacy than echinomycin (FIG. 12a)): reduced; tumor initiation of CSC [2]: reduced; inhibition of colony formation of sorted c-Kit+Sca-1+ tumor cells [3]: Inhibition
S=C(S)N1CCCC1 [PDTC] | no effect | 
OCC1OC(O)CC(O)C1O (stereo not shown) [2-DG] | no effect | 
